US8192962B2, “Processes for detecting toxic substances” (Daikin Industries, Ltd., priority 2001, dated 2012)

Test system: Detoxification protein genes
Test: DNA chip mRNA expression in yeast, detoxification protein genes (Table 8)
Assay type: cell-based, Saccharomyces cerevisiae S288C
How it was run: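 Cells were grown at 25° C. in YPD, treated at logarithmic phase for 2 h with a chemical at a concentration inhibiting growth but not causing death, and compared with untreated cultures. Labeled cDNA was hybridized to a DNA chip carrying all yeast genes, and the expression ratio was taken from scanner fluorescence.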

N#Cc1c(Cl)c(Cl)c(Cl)c(C#N)c1Cl [(9), 2,4,5,6-tetrachloro-1,3-benzenedicarbonitrile]
The level of expressed mRNA in the presence of chemical substance/The level of expressed mRNA in the absence of chemical substance (yeast gene YBL064C): 4.5 | The level of expressed mRNA in the presence of chemical substance/The level of expressed mRNA in the absence of chemical substance (yeast gene YBR008C): 54.6 | The level of expressed mRNA in the presence of chemical substance/The level of expressed mRNA in the absence of chemical substance (yeast gene YBR145W): 0.1 | The level of expressed mRNA in the presence of chemical substance/The level of expressed mRNA in the absence of chemical substance (yeast gene YBR244W): 1.4 | The level of expressed mRNA in the presence of chemical substance/The level of expressed mRNA in the absence of chemical substance (yeast gene YBR293W): 5.5 | The level of expressed mRNA in the presence of chemical substance/The level of expressed mRNA in the absence of chemical substance (yeast gene YCL035C): 1.9 | The level of expressed mRNA in the presence of chemical substance/The level of expressed mRNA in the absence of chemical substance (yeast gene YCL069W): 1.2 | The level of expressed mRNA in the presence of chemical substance/The level of expressed mRNA in the absence of chemical substance (yeast gene YCR083W): 1.8 | The level of expressed mRNA in the presence of chemical substance/The level of expressed mRNA in the absence of chemical substance (yeast gene YDL100C): 5.4 | The level of expressed mRNA in the presence of chemical substance/The level of expressed mRNA in the absence of chemical substance (yeast gene YDL168W): 8.2 | The level of expressed mRNA in the presence of chemical substance/The level of expressed mRNA in the absence of chemical substance (yeast gene YDR256C): 5.2 | The level of expressed mRNA in the presence of chemical substance/The level of expressed mRNA in the absence of chemical substance (yeast gene YDR453C): 4.5 | The level of expressed mRNA in the presence of chemical substance/The level of expressed mRNA in the absence of chemical substance (yeast gene YDR513W): 4.6 | The level of expressed mRNA in the presence of chemical substance/The level of expressed mRNA in the absence of chemical substance (yeast gene YDR538W): 0.3 | The level of expressed mRNA in the presence of chemical substance/The level of expressed mRNA in the absence of chemical substance (yeast gene YEL027W): 0.9 | The level of expressed mRNA in the presence of chemical substance/The level of expressed mRNA in the absence of chemical substance (yeast gene YEL065W): 0.1 | The level of expressed mRNA in the presence of chemical substance/The level of expressed mRNA in the absence of chemical substance (yeast gene YER185W): 2.9 | The level of expressed mRNA in the presence of chemical substance/The level of expressed mRNA in the absence of chemical substance (yeast gene YFL050C): 0.5 | The level of expressed mRNA in the presence of chemical substance/The level of expressed mRNA in the absence of chemical substance (yeast gene YGL013C): 3.0 | The level of expressed mRNA in the presence of chemical substance/The level of expressed mRNA in the absence of chemical substance (yeast gene YGL254W): 3.1 | The level of expressed mRNA in the presence of chemical substance/The level of expressed mRNA in the absence of chemical substance (yeast gene YGR088W): 1.5 | The level of expressed mRNA in the presence of chemical substance/The level of expressed mRNA in the absence of chemical substance (yeast gene YGR138C): 0.5 | The level of expressed mRNA in the presence of chemical substance/The level of expressed mRNA in the absence of chemical substance (yeast gene YGR197C): 16.7 | The level of expressed mRNA in the presence of chemical substance/The level of expressed mRNA in the absence of chemical substance (yeast gene YGR209C): 2.4 | The level of expressed mRNA in the presence of chemical substance/The level of expressed mRNA in the absence of chemical substance (yeast gene YGR224W): 0.9 | The level of expressed mRNA in the presence of chemical substance/The level of expressed mRNA in the absence of chemical substance (yeast gene YHL040C): 1.1 | The level of expressed mRNA in the presence of chemical substance/The level of expressed mRNA in the absence of chemical substance (yeast gene YHL047C): 1.2 | The level of expressed mRNA in the presence of chemical substance/The level of expressed mRNA in the absence of chemical substance (yeast gene YHR008C): 1.7 | The level of expressed mRNA in the presence of chemical substance/The level of expressed mRNA in the absence of chemical substance (yeast gene YHR048W): 4.5 | The level of expressed mRNA in the presence of chemical substance/The level of expressed mRNA in the absence of chemical substance (yeast gene YHR053C): 4.5 | The level of expressed mRNA in the presence of chemical substance/The level of expressed mRNA in the absence of chemical substance (yeast gene YHR055C): 3.9 | The level of expressed mRNA in the presence of chemical substance/The level of expressed mRNA in the absence of chemical substance (yeast gene YIR002C): 1.7 | The level of expressed mRNA in the presence of chemical substance/The level of expressed mRNA in the absence of chemical substance (yeast gene YIR038C): 4.6 | The level of expressed mRNA in the presence of chemical substance/The level of expressed mRNA in the absence of chemical substance (yeast gene YJL101C): 3.1 | The level of expressed mRNA in the presence of chemical substance/The level of expressed mRNA in the absence of chemical substance (yeast gene YJR104C): 1.9 | The level of expressed mRNA in the presence of chemical substance/The level of expressed mRNA in the absence of chemical substance (yeast gene YKL026C): 7.5 | The level of expressed mRNA in the presence of chemical substance/The level of expressed mRNA in the absence of chemical substance (yeast gene YKL064W): 2.4 | The level of expressed mRNA in the presence of chemical substance/The level of expressed mRNA in the absence of chemical substance (yeast gene YKR066C): 0.7 | The level of expressed mRNA in the presence of chemical substance/The level of expressed mRNA in the absence of chemical substance (yeast gene YKR105C): 1.0 | The level of expressed mRNA in the presence of chemical substance/The level of expressed mRNA in the absence of chemical substance (yeast gene YKR106W): 10.5 | The level of expressed mRNA in the presence of chemical substance/The level of expressed mRNA in the absence of chemical substance (yeast gene YLL028W): 1.2 | The level of expressed mRNA in the presence of chemical substance/The level of expressed mRNA in the absence of chemical substance (yeast gene YLL057C): 121.8 | The level of expressed mRNA in the presence of chemical substance/The level of expressed mRNA in the absence of chemical substance (yeast gene YLL060C): 13.0 | The level of expressed mRNA in the presence of chemical substance/The level of expressed mRNA in the absence of chemical substance (yeast gene YLR043C): 2.8 | The level of expressed mRNA in the presence of chemical substance/The level of expressed mRNA in the absence of chemical substance (yeast gene YLR046C): 1.0 | The level of expressed mRNA in the presence of chemical substance/The level of expressed mRNA in the absence of chemical substance (yeast gene YML028W): 0.8 | The level of expressed mRNA in the presence of chemical substance/The level of expressed mRNA in the absence of chemical substance (yeast gene YML116W): 1.4 | The level of expressed mRNA in the presence of chemical substance/The level of expressed mRNA in the absence of chemical substance (yeast gene YMR015C): 0.1 | The level of expressed mRNA in the presence of chemical substance/The level of expressed mRNA in the absence of chemical substance (yeast gene YMR038C): 2.4 | The level of expressed mRNA in the presence of chemical substance/The level of expressed mRNA in the absence of chemical substance (yeast gene YNL239W): 2.5 | The level of expressed mRNA in the presence of chemical substance/The level of expressed mRNA in the absence of chemical substance (yeast gene YNL241C): 3.4 | The level of expressed mRNA in the presence of chemical substance/The level of expressed mRNA in the absence of chemical substance (yeast gene YNL259C): 1.6 | The level of expressed mRNA in the presence of chemical substance/The level of expressed mRNA in the absence of chemical substance (yeast gene YOL158C): 1.7 | The level of expressed mRNA in the presence of chemical substance/The level of expressed mRNA in the absence of chemical substance (yeast gene YOR031W): 0.7 | The level of expressed mRNA in the presence of chemical substance/The level of expressed mRNA in the absence of chemical substance (yeast gene YOR153W): 3.2 | The level of expressed mRNA in the presence of chemical substance/The level of expressed mRNA in the absence of chemical substance (yeast gene YOR247W): 0.1 | The level of expressed mRNA in the presence of chemical substance/The level of expressed mRNA in the absence of chemical substance (yeast gene YOR251C): 0.8 | The level of expressed mRNA in the presence of chemical substance/The level of expressed mRNA in the absence of chemical substance (yeast gene YOR273C): 0.6 | The level of expressed mRNA in the presence of chemical substance/The level of expressed mRNA in the absence of chemical substance (yeast gene YPL163C): 0.1 | The level of expressed mRNA in the presence of chemical substance/The level of expressed mRNA in the absence of chemical substance (yeast gene YPR200C): 4.7
